One experiment deals with dual-R clone 21d. Nature of the experiment: Entry inhibitor susceptibility, pseudotyped HIV-1 entry (luciferase) assay, env clone 21d (c21). In kind it is cell-based. The conditions noted are these: dual-R clone 21d compared to R5-, X4- and dual-X tropic clones. The protocol: (§1) Susceptibility assays for HIV-1 entry inhibitors were performed using packaging host cells consisting of the human embryonic kidney cell line 293 (Cell Culture Facility, UC San Francisco, SF, Calif.) and target host cells consisting of a human osteosarcoma (HOS) cell line expressing CD4 (HT4) plus CCR5, and CXCR4, astrocytoma (U-87) cell lines expressing either CD4 and CCR5 or CD4 and CXCR4, or glioma (NP2) cell lines expressing CD4 and either CCR5 or CXCR4.
(§2) Drug susceptibility and tropism testing was performed using pHIVenv and pHIVluc or pHIVlucΔU3. […] After infection ([…]) the target cells were lysed and luciferase activity was measured. […] The amount of luciferase activity detected in the infected cells was used as a direct measure of “infectivity” (FIGS. 1 and 2). […] Drug susceptibility was assessed by comparing the infectivity in the absence of drug to infectivity in the presence of drug. Relative drug susceptibility can be quantified by comparing the susceptibility of the “test” virus to the susceptibility of a well-characterized reference virus (wild type) derived from a molecular clone of HIV-1, for example NL4-3 or PIXB2.
(§3) The ability of a virus to enter a cell was assessed by comparing the amount of luciferase activity produced in each cell type, e.g., cells expressing CD4 and either CCR5 or CXCR4, both in the presence and absence of drug. […]

Another experiment deals with dual-R clone 86d. Briefly: Entry inhibitor susceptibility, pseudotyped HIV-1 entry (luciferase) assay, env clone 86d (c86). In kind it is cell-based. The protocol:
as §1, §2, §3

Experiment [1] has as its system Isogenic viruses containing one or two specific mutations in the gp41 transmembrane envelope protein. Briefly: T-20 susceptibility of isogenic viruses with gp41 mutations (FIG. 4B). To be noted: cells expressing CD4, CCR5 and CXCR4, gp41 mutants vs wild type. In kind it is cell-based, HIV. The protocol: Cells expressing CD4, CCR5 and CXCR4 were infected in the absence of T-20 and over a wide range of T-20 concentrations (x-axis log 10 scale). The percent inhibition of viral replication (y-axis) was determined by comparing the amount of luciferase produced in infected cells in the presence of T-20 to the amount of luciferase produced in the absence of T-20. Isogenic viruses containing one or two specific mutations in the gp41 transmembrane envelope protein were tested (highlighted in red in the figure legend). Drug susceptibility is quantified by determining the concentration of T-20 required to inhibit 50% of viral replication (IC50, shown as vertical dashed lines). […]
as §2

For another experiment, the system named is dual-X clone 88D. Nature of the experiment: Entry inhibitor susceptibility, pseudotyped HIV-1 entry (luciferase) assay, env clone 88D (c88). In kind it is cell-based. To be noted: Human immunodeficiency virus 1; clone c88, tropism dual; read-out: Sensitivity of Entry Inhibitors. The protocol: as §1, §2, §3
A further experiment relates to dual-X clone 11D. Nature of the experiment: Entry inhibitor susceptibility, pseudotyped HIV-1 entry (luciferase) assay, env clone 11D (c11). The conditions noted are these: Human immunodeficiency virus 1; clone c11, tropism dual; read-out: Sensitivity of Entry Inhibitors. In kind it is cell-based. The protocol: as §1, §2, §3
The test system of a further experiment is X4-tropic clone 42x. Nature of the experiment: Entry inhibitor susceptibility, pseudotyped HIV-1 entry (luciferase) assay, env clone 42x (c42). In kind it is cell-based. The protocol:
as §1, §2, §3

This note sets out measurements from patent US10161931B2, “Methods for determining susceptibility to coreceptor inhibitors” (Monogram Biosciences, Inc., priority 2006, dated 2018).

pIC50: −log10 of the molar value.

On to enfuvirtide, for which the fold-reduced susceptibility in the experiment on dual-R clone 21d is 4-5 fold; with dual-R clone 86d (dual-R clone 86d compared to R5-, X4- and dual-X tropic clones), 4-5 fold. The “susceptibility to fusion inhibitor (in words)” value in experiment [1] is listed as “reduced susceptibility”.

On to `c1cc(CN2CCCNCCNCCCNCC2)ccc1CN1CCCNCCNCCCNCC1` [AMD], for which the pIC50 in the experiment with dual-X clone 88D was 8.06; in the experiment on dual-X clone 11D it was 8.47; in the experiment on X4-tropic clone 42x (Human immunodeficiency virus 1, clone c42, tropism X4, read-out: Sensitivity of Entry Inhibitors) it was 7.34; with dual-R clone 86d (Human immunodeficiency virus 1, clone c86, tropism dual-R, read-out: Sensitivity of Entry Inhibitors), 8.25. Also, the “sensitivity compared to other clones (in words)” value with X4-tropic clone 42x (X4 clone 42d (so in the source)) is given as “subtle reduction in sensitivity”.
